What was measured:
[1] = test system: seizures induced by electroshock; test: Protection against seizures induced by electroshock in rats; format: in vivo, rats (Sprague Dawley male albino); conditions: for ED50: Rattus norvegicus, ip, 150 milliamps
Excerpt: After about thirty minutes, the mice are shocked via ear clip electrodes, with a 60-cycle electrical current for 0.2 second, using a current intensity of 25 milliamps. The number of mice protected against tonic extensor seizures is used as a quantal response to calculate the Ed50, by the method of Spearman and […] (see D. J. Finney, "Statistical Methodology in Biological Assay", Hofner Publishing Co., New York, N.Y. 1952, page 524). For control purposes, a group of six mice is similarly treated with diphenylhydantoin and shocked. […] Protection against seizures induced by electroshock is also shown in rats (Sprague Dawley male albino rats weighting 150 to 300 grams each). The testing procedure is identical to that used in Example 9 supra. except that the electroshock current intensity is increased from 25 to 150 milliamps to accommodate this larger species.

[2] = test system: electrically induced afterdischarge; test: Depression of electrically induced afterdischarges in the cat; format: in vivo, cat (mongrel cats of either sex); set-up: duration of afterdischarge: unit not given here; conditions: for duration of afterdischarge: intravenous
Excerpt: N. Strow and C. L. Mitchell, Electroenceph. […] Mongrel cats of either sex weighing 1.5-3.0 kg. are anesthetized with halothane. Two pair of stainless steel screw electrodes are placed bilaterally in the skull for stimulation and recording. The cats are paralyzed with decamethonium, artifically respired and after ninety minutes allowed to blow off the halothane. […] is elicited by electrical stimulation across one pair of electrodes (5 second train of 1 millisecond pulses at 50 pulses per second at 5.0-10 milliamps). Duration of discharge is recorded from the second electrode pair. Two groups of controls are taken before test drug administration and duration of […] measured after each dose of test drug.

[3] = test system: electroshock-induced seizures (tonic extensor seizures); test: Protection against electroshock-induced seizures in mice; format: in vivo, mice (Cartworth farms, male albino); conditions: for ED50: 25 milliamps
Excerpt: Med. Chem. 8, 5-8, (1965). […] […] The number of mice protected against tonic extensor seizures is used as a quantal response to calculate the Ed50, by the method of Spearman and […] (see D. J. Finney, "Statistical Methodology in Biological Assay", Hofner Publishing Co., New York, N.Y. 1952, page 524). For control purposes, a group of six mice is similarly treated with diphenylhydantoin and shocked.

in vivo = conditions: mouse, ip
[4] = Mus musculus, ip, 0.5 h, absorption time 0.5 (Minutes)

For O=C1NC(=O)C(c2ccccc2)(c2ccccc2)N1 [diphenylhydantoin, reference compound], the ED50 ([1]; 0.5 h, absorption time 30 min) was 8 mg/kg, the duration of afterdischarge ([2]; 2.5 mg./kg. total dose) was 30 and the duration of afterdischarge ([2]; 5.0 mg./kg. total dose) was 32. The duration of afterdischarge ([2]; 10.0 mg./kg. total dose) was 9, the duration of afterdischarge ([2]; 20.0 mg./kg. total dose) was 4 and the ED50 [3, 4] was 14 mg/kg.

For Cc1cccc(C(=O)Nc2c(C)cccc2C)c1N [N'-(2,6-dimethylphenyl)-2-amino-3-methylbenzamide], the ED50 ([1]; 0.5 h, absorption time 30 min) was 4.5 mg/kg, the ED50 ([1]; 1 h, absorption time 60 min) was 2.5 mg/kg and the ED50 ([1]; 4 h, absorption time 240 min) was 4.5 mg/kg. The ED50 ([1]; 8 h, absorption time 480 min) was 7.1 mg/kg, the “anticonvulsive potency compared with diphenylhydantoin” value ([1]; electroshock, milligram basis) was “more potent on a milligram basis than diphenylhydantoin” and the duration of afterdischarge ([2]; 2.5 mg./kg. total dose) was 31. It also gave a duration of afterdischarge ([2]; 5.0 mg./kg. total dose) of 27, a duration of afterdischarge ([2]; 10.0 mg./kg. total dose) of 4 and a duration of afterdischarge ([2]; 20.0 mg./kg. total dose) of 2. The “Relative Potency (shortening of afterdischarge)” value ([2]; relative to diphenylhydantoin on a milligram basis) was 1.42, the ED50 ([3]; IP, absorption time 0.5 (Minutes), 0.5 min) was 5.6 mg/kg and the ED50 [3, 4] was 7 mg/kg. It also gave an ED50 ([3]; Mus musculus, po, 1 min, absorption time 1 (Minutes)) of 10 mg/kg, an ED50 ([3]; Mus musculus, po, 2 min, absorption time 2 (Minutes)) of 10 mg/kg and an ED50 ([3]; Mus musculus, po, 4 min, absorption time 4 (Minutes)) of 11 mg/kg. The ED50 ([3]; Mus musculus, po, 8 min, absorption time 8 (Minutes)) was 32 mg/kg, the ED50 ([3]; Mus musculus, po, 16 min, absorption time 16 (Minutes)) was 112 mg/kg and the ED50 ([3]; Mus musculus, po, 0.4 h, absorption time 24 (Minutes)) was 178 mg/kg. For the same molecule, the ED50 ([3]; Mus musculus, po, 0.5 h, absorption time 0.5 (Minutes)) was 10 mg/kg, the duration of action ([3]; electroshock, Table I) was “long acting” and the LD50 (in vivo) was 297 mg/kg.

— patent publication US4004029A, “Compositions and method for treating epilepsy and convulsions” (The Upjohn Company, priority 1975, dated 1977)
